# Measured values: the SangsterLogP compilation
# Assay: method code SF-AS, from DOI: 10.1002/zfch.19810211114
row,SMILES,logP
1,CNC(=O)NN,-2.2
2,CCCCNC(=O)NN,-0.6
3,CN(C)C(=O)NN,-1.57
4,CC(C)CNC(=O)NN,-0.84
5,CCNC(=O)NN,-1.62
6,NNC(N)=O,-2.75
7,CCCCCCNC(=O)NN,0.46
8,CCN(CC)C(=O)NN,-0.62
9,CCCCCNC(=O)NN,-0.04
10,CC(C)NC(=O)NN,-1.3
11,CC(C)(C)NC(=O)NN,-0.81
12,C=CCNC(=O)NN,-1.55
13,CCCNC(=O)NN,-1.1
14,NNC(=O)NCc1ccccc1,-0.22
15,NNC(=O)NC1CCCCC1,0.15
